# Source: ChEMBL document CHEMBL3885881, “DrugMatrix”
# Species on record: Rattus norvegicus
# Assay: DrugMatrix - Regimen: Daily Repeat
# Format: toxicity, organism-based, Sprague-Dawley
# Set-up: regimen Daily Repeat, gender Male, age 6-8 weeks
# Settings: in vivo, po, route oral GAVAGE, […]; for ABSOLUTE BASOPHIL / ABSOLUTE EOSINOPHIL / ABSOLUTE LYMPHOCYTE / ABSOLUTE MONOCYTE / ABSOLUTE SEGMENTED NEUTROPHIL / BASOPHIL / EOSINOPHIL / ERYTHROCYTE COUNT / HEMATOCRIT / HEMOGLOBIN / LEUKOCYTE COUNT / LYMPHOCYTE / MEAN CORPUSCULAR HEMOGLOBIN / MEAN CORPUSCULAR HEMOGLOBIN CONCENTRATION / MEAN CORPUSCULAR VOLUME / MONOCYTE / NEUTROPHIL / NUCLEATED RED BLOOD CELLS / PLATELET COUNT: tissue Blood; for ALANINE AMINOTRANSFERASE / ALBUMIN / ALKALINE PHOSPHATASE / ASPARTATE AMINOTRANSFERASE / BLOOD UREA NITROGEN / CARBON DIOXIDE / CHLORIDE / CHOLESTEROL / CREATINE PHOSPHOKINASE / CREATININE / GLUCOSE / LACTATE DEHYDROGENASE / LIPASE / PHOSPHORUS / POTASSIUM / SODIUM / TOTAL BILIRUBIN / TOTAL PROTEIN / URIC ACID: tissue Plasma
# [1] = 12 mg/kg, 120 h, dose level Low, time 5 day
# [2] = 75 mg/kg, 72 h, dose level High, time 3 day
# [3] = 75 mg/kg, 120 h, dose level High, time 5 day
structure (smiles),measurement,setting,value
CO[C@H]1/C=C/O[C@@]2(C)Oc3c(C)c(O)c4c(O)c(c(/C=N/N5CCN(C6CCCC6)CC5)c(O)c4c3C2=O)NC(=O)/C(C)=C\C=C\[C@H](C)[C@H](O)[C@@H](C)[C@@H](O)[C@@H](C)[C@H](OC(C)=O)[C@@H]1C [RIFAPENTINE],ABSOLUTE BASOPHIL,[1],0 CELLS/uL
same,ABSOLUTE EOSINOPHIL,[1],0 CELLS/uL
same,ABSOLUTE LYMPHOCYTE,[1],14120.67 CELLS/uL
same,ABSOLUTE MONOCYTE,[1],159.67 CELLS/uL
same,ABSOLUTE SEGMENTED NEUTROPHIL,[1],1686.33 CELLS/uL
same,BASOPHIL,[1],0%
same,EOSINOPHIL,[1],0%
same,ERYTHROCYTE COUNT,[1],5.71 x10E6/uL
same,HEMATOCRIT,[1],35.8%
same,HEMOGLOBIN,[1],13.33 G/DL
same,LEUKOCYTE COUNT,[1],15.97 x10E3/uL
same,LYMPHOCYTE,[1],88.33%
same,MEAN CORPUSCULAR HEMOGLOBIN,[1],23.4 pg
same,MEAN CORPUSCULAR HEMOGLOBIN CONCENTRATION,[1],37.3 G/DL
same,MEAN CORPUSCULAR VOLUME,[1],62.73 fL
same,MONOCYTE,[1],1%
same,NEUTROPHIL,[1],10.67%
same,NUCLEATED RED BLOOD CELLS,[1],0 /100WBC
same,PLATELET COUNT,[1],1349 x10E3/uL
same,ALANINE AMINOTRANSFERASE,[1],49.33 u/L
same,ALBUMIN,[1],4.07 G/DL
same,ALKALINE PHOSPHATASE,[1],549.33 u/L
same,ASPARTATE AMINOTRANSFERASE,[1],91.67 u/L
same,BLOOD UREA NITROGEN,[1],16 mg/dL
same,CARBON DIOXIDE,[1],28 mmol/L
same,CHLORIDE,[1],102.67 MEQ/L
same,CHOLESTEROL,[1],54.33 mg/dL
same,CREATINE PHOSPHOKINASE,[1],385.33 u/L
same,CREATININE,[1],0.16 mg/dL
same,GLUCOSE,[1],167.67 mg/dL
same,LACTATE DEHYDROGENASE,[1],391.67 u/L
same,LIPASE,[1],9.67 u/L
same,PHOSPHORUS,[1],11.2 mg/dL
same,POTASSIUM,[1],6.39 MEQ/L
same,SODIUM,[1],142.5 MEQ/L
same,TOTAL BILIRUBIN,[1],0.3 mg/dL
same,TOTAL PROTEIN,[1],5.9 G/DL
same,URIC ACID,[1],1.7 mg/dL
same,ABSOLUTE BASOPHIL,[2],0 CELLS/uL
same,ABSOLUTE EOSINOPHIL,[2],0 CELLS/uL
same,ABSOLUTE LYMPHOCYTE,[2],7973.67 CELLS/uL
same,ABSOLUTE MONOCYTE,[2],130.33 CELLS/uL
same,ABSOLUTE SEGMENTED NEUTROPHIL,[2],596 CELLS/uL
same,BASOPHIL,[2],0%
same,EOSINOPHIL,[2],0%
same,ERYTHROCYTE COUNT,[2],5.11 x10E6/uL
same,HEMATOCRIT,[2],32.07%
same,HEMOGLOBIN,[2],12.17 G/DL
same,LEUKOCYTE COUNT,[2],8.7 x10E3/uL
same,LYMPHOCYTE,[2],92%
same,MEAN CORPUSCULAR HEMOGLOBIN,[2],23.8 pg
same,MEAN CORPUSCULAR HEMOGLOBIN CONCENTRATION,[2],37.97 G/DL
same,MEAN CORPUSCULAR VOLUME,[2],62.73 fL
same,MONOCYTE,[2],1.33%
same,NEUTROPHIL,[2],6.67%
same,NUCLEATED RED BLOOD CELLS,[2],0 /100WBC
same,PLATELET COUNT,[2],1158.67 x10E3/uL
same,ALANINE AMINOTRANSFERASE,[2],71.33 u/L
same,ALBUMIN,[2],4.07 G/DL
same,ALKALINE PHOSPHATASE,[2],536.33 u/L
same,ASPARTATE AMINOTRANSFERASE,[2],84.33 u/L
same,BLOOD UREA NITROGEN,[2],11 mg/dL
same,CARBON DIOXIDE,[2],29.33 mmol/L
same,CHLORIDE,[2],104.33 MEQ/L
same,CHOLESTEROL,[2],73 mg/dL
same,CREATINE PHOSPHOKINASE,[2],243 u/L
same,CREATININE,[2],0.1 mg/dL
same,GLUCOSE,[2],158.33 mg/dL
same,LACTATE DEHYDROGENASE,[2],88 u/L
same,LIPASE,[2],8.67 u/L
same,PHOSPHORUS,[2],11.53 mg/dL
same,POTASSIUM,[2],6.14 MEQ/L
same,SODIUM,[2],147.17 MEQ/L
same,TOTAL BILIRUBIN,[2],0.6 mg/dL
same,TOTAL PROTEIN,[2],5.77 G/DL
same,URIC ACID,[2],1.13 mg/dL
same,ABSOLUTE BASOPHIL,[3],0 CELLS/uL
same,ABSOLUTE EOSINOPHIL,[3],83.33 CELLS/uL
same,ABSOLUTE LYMPHOCYTE,[3],14410.33 CELLS/uL
same,ABSOLUTE MONOCYTE,[3],288.33 CELLS/uL
same,ABSOLUTE SEGMENTED NEUTROPHIL,[3],1718 CELLS/uL
same,BASOPHIL,[3],0%
same,EOSINOPHIL,[3],0.67%
same,ERYTHROCYTE COUNT,[3],6.37 x10E6/uL
same,HEMATOCRIT,[3],38.63%
same,HEMOGLOBIN,[3],14 G/DL
same,LEUKOCYTE COUNT,[3],16.5 x10E3/uL
same,LYMPHOCYTE,[3],87%
same,MEAN CORPUSCULAR HEMOGLOBIN,[3],21.97 pg
same,MEAN CORPUSCULAR HEMOGLOBIN CONCENTRATION,[3],36.2 G/DL
same,MEAN CORPUSCULAR VOLUME,[3],60.67 fL
same,MONOCYTE,[3],1.67%
same,NEUTROPHIL,[3],10.67%
same,NUCLEATED RED BLOOD CELLS,[3],0 /100WBC
same,PLATELET COUNT,[3],1299.67 x10E3/uL
same,ALANINE AMINOTRANSFERASE,[3],72 u/L
same,ALBUMIN,[3],4.13 G/DL
same,ALKALINE PHOSPHATASE,[3],446.67 u/L
same,ASPARTATE AMINOTRANSFERASE,[3],99.33 u/L
same,BLOOD UREA NITROGEN,[3],13.67 mg/dL
same,CARBON DIOXIDE,[3],27.67 mmol/L
same,CHLORIDE,[3],101 MEQ/L
same,CHOLESTEROL,[3],39 mg/dL
same,CREATINE PHOSPHOKINASE,[3],886.67 u/L
same,CREATININE,[3],0.13 mg/dL
same,GLUCOSE,[3],164 mg/dL
same,LACTATE DEHYDROGENASE,[3],219.67 u/L
same,LIPASE,[3],7.67 u/L
same,PHOSPHORUS,[3],11.07 mg/dL
same,POTASSIUM,[3],6.28 MEQ/L
same,SODIUM,[3],141.1 MEQ/L
same,TOTAL BILIRUBIN,[3],0.4 mg/dL
same,TOTAL PROTEIN,[3],5.87 G/DL
same,URIC ACID,[3],1.47 mg/dL
